# Data as given in patent publication US9655846B2, “Methods for the preparation of liposomes comprising drugs” (priority 2009, dated 2017).
# What was measured:
# [1] = Incorporation of docetaxel into liposome; format: physicochemical; conditions: docetaxel added after liposome preparation vs conventional process
# Protocol: As provided herein, the sequence of the addition of docetaxel results in enhanced solubility of the docetaxel. The conventional method of incorporating a hydrophobic drug into liposome is by adding the drug to lipid before liposome preparation. See, e.g., Immordino, M. L. et al., Journal of Controlled Release, 2003, 91: 417-429. By the conventional process, the incorporation of the drug is only 0.3 to 0.7 mg/mL. When docetaxel is added after liposome preparation, the incorporation of docetaxel is increased from 0.3 mg/mL to 5 mg/mL, which is more than 10 fold increase in solubility of the drug in lipid alone.
# In the conventional liposome preparation, the drug to lipid molar percent ratio is 4-6% with the incorporation of drug into liposome efficiency is only 56%. See Immordino, M. L. et al., Journal of Controlled Release, 2003, 91: 417-429.
# [2] = Stability upon dilution or storage, by reverse phase HPLC; format: physicochemical; conditions: for time docetaxel remained soluble and formulation stable upon dilution: RP-HPLC
# Protocol: Docetaxel (5 mg) was added to 31 μL of oleic acid and mixed using a VORTEX®. Ethanolamine (6 μL) was subsequently added and mixed using a VORTEX®. After mixing, the sample was dispersed in 963 μL of water for injection. Docetaxel was soluble and the formulation clear at 5 mg/mL. Docetaxel remained soluble, and the formulation was stable, upon dilution (1:10 in 2.5% glycerol) up to 24 hours as analyzed by a reverse phase high performance liquid chromatography method.
# (§1) Docetaxel (5.0 mg) was added to 1 mL of 0.05 M sodium oleate and mixed using a VORTEX®. Docetaxel was soluble and the formulation clear at 5.0 mg/mL. Docetaxel remained soluble, and the formulation was stable, upon dilution (1:10 in 2.5% glycerol) up to 24 hours as analyzed by a reverse phase high performance liquid chromatography method.
# as §1, with “(2” for “(5.0”, “1” for “0.05”, “caprylate” for “oleate”, “by” for “using”, “2” for “5.0”, “(1:2” for “(1:10 in”
# as §1, with “(7.0” for “(5.0”, “1” for “0.05”, “linoleate” for “oleate”, “7.0” for “5.0”, “(1:10” for “(1:10 in”
# Docetaxel (5 mg) was added to 1 mL of pre-made liposome containing 2 mM sodium oleate and 6% soy phosphatidyl choline, 10% trehalose, pH adjusted to 5-7 using Acetic acid, mixed using a VORTEX®, and microfluidized using a Microfluidizer with 10 passes at 15,000 psi. Five additional passes with the Microfluidizer at 15,000 psi were made to incorporate all 5 mg of the drug into 1 mL of pre-made liposome. Docetaxel was soluble and the formulation was transparent at 5 mg/mL. Docetaxel remained soluble, and the formulation was stable, upon dilution (1:10 in D5W) up to 48 hours as analyzed by a reverse phase high performance liquid chromatography method.
# Hydrophobic or lipophilic compounds can be solubilized directly in sodium (or any ion) salt of fatty acid dissolved in an organic solvent. The organic solvent is subsequently removed using rotary evaporation, spray drying, or any other pharmaceutically acceptable processes. The drug-sodium salt of fatty acid mixture is subsequently dispersed in water, isotonic glycerol, or any pharmaceutically acceptable isotonic solution to achieve a desired concentration of the solubilized compound. For example, docetaxel (5 mg/mL) was dissolved in 100 mM sodium oleate in 100% ethanol. Ethanol was completely evaporated using rotary evaporation at 20° C. The docetaxel-sodium oleate was reconstituted with Water For Injection (“WFI”) or 2.5% glycerol to provide 5 mg/mL, 10 mg/mL, or 20 mg/mL concentration of docetaxel.
# 50 μl of Docetaxel in ethanol (100 mg/mL) was added to 1 mL of pre-made liposome containing 2 mM sodium oleate and 6% soy phosphatidyl choline, 10% trehalose and pH adjusted to 5-7 using Acetic acid, mixed using a VORTEX® and microfluidized using a Microfluidizer with 10 passes at 15,000 psi. Docetaxel was soluble and the formulation is transparent at 5 mg/mL. Docetaxel remained soluble, and the formulation was stable, upon dilution (1:10 in D5W) up to 48 hours as analyzed by a reverse phase high performance liquid chromatography method. […] The lyophilized product is reconstituted with water for injection at 5 mg, 10, or 20 mg/ml, concentration, essentially free of organic solvent.
smiles,measurement,setting,value
"CC(=O)O[C@@]12CO[C@@H]1C[C@H](O)[C@@]1(C)C(=O)[C@H](O)C3=C(C)[C@@H](OC(=O)[C@H](O)[C@@H](NC(=O)OC(C)(C)C)c4ccccc4)C[C@@](O)([C@@H](OC(=O)c4ccccc4)[C@H]21)C3(C)C [Docetaxel, docetaxel]",increase in solubility of the drug over lipid alone,[1],more than 10 fold
same,time docetaxel remained soluble and formulation stable upon dilution,"[2]; Example 6 oleic acid formulation, dilution 1:10 in 2.5% glycerol",up to 24 hours
same,time docetaxel remained soluble and formulation stable upon dilution,"[2]; Example 7 sodium oleate formulation, dilution 1:10 in 2.5% glycerol",up to 24 hours
same,time docetaxel remained soluble and formulation stable upon dilution,"[2]; Example 8 sodium caprylate formulation, dilution 1:2 2.5% glycerol",up to 24 hours
same,time docetaxel remained soluble and formulation stable upon dilution,"[2]; Example 9 sodium linoleate formulation, dilution 1:10 2.5% glycerol",up to 24 hours
same,time docetaxel remained soluble and formulation stable upon dilution,"[2]; Example 10 oleate liposome formulation, dilution 1:10 in D5W",up to 48 hours
same,stability of the lyophilized formulation,[2]; Example 10 oleate liposome formulation,stable for more than a year
same,time reconstituted docetaxel remained in solution,"[2]; Example 11: docetaxel-sodium oleate reconstituted with WFI or 2.5% glycerol to 5, 10 or 20 mg/mL","remained in solution for 2 hours, 4 hours, 6 hours, 8 hours or 24 hours"
same,time docetaxel remained soluble and formulation stable upon dilution,"[2]; Example 12 nanosome-oleate formulation, dilution 1:10 in D5W",up to 48 hours
same,stability of the lyophilized formulation,[2]; Example 12 nanosome-oleate formulation,stable for more than a year
